Assay results published in US12441691B2 (Cytokinetics, Inc., priority 2020, dated 2025).

System: rabbit skeletal myofibrils (fast skeletal myofibrils)
Test: Activation of fast skeletal myofibrils (PUMA assay, AC1.4)
Assay type: biochemical
Details: calcium at pCa25, AC1.4 = concentration at which the compound increased the enzymatic activity
Method: Preparation of fast skeletal myofibrils: Rabbit skeletal myofibrils were prepared based upon the method of Herrmann et al. (Biochem. 32(28):7255-7263(1993). Myofibrils were prepared from rabbit psoas muscle purchased from Pel-Freez Biologicals (Arkansas) within 2 days of ordering, stored on ice. Minced muscle was homogenized in 10 volumes of ice-cold “standard” buffer (50 mM Tris, pH 7.4, 0.1 M KOAc, 5 mM KCl, 2 mM dithiothreitol (DTT), 0.2 mM phenylmethylsulfonyl fluoride (PMSF), 10 μM leupeptin, 5 μM pepstatin, and 0.5 mM sodium azide) containing 5 mM ethylenediaminetetraacetic acid (EDTA) and 0.5% Triton X-100 using an Omni-Macro homogenizer. Myofibrils were recovered by low speed centrifugation (3000 rpm for 10 minutes) and washed 2 times in the Triton X-100 containing buffer to ensure removal of cellular membrane. Following the Triton washes, myofibrils were washed 3 times in “standard” buffer containing 2 mM magnesium acetate. A final wash in assay buffer (12 mM piperazine-1,4-bis(2-ethanesulfonic acid) (PIPES), pH 6.8, 60 mM KCl, 1 mM DTT) was performed and brought to 10% sucrose for flash freezing in liquid nitrogen and storage at −80° C.
Activation of Fast Skeletal Myofibrils: Fast fiber activators were identified by measuring the enzymatic activity of muscle myofibril preparations using the proprietary PUMA (trademark) (see, e.g., U.S. Pat. Nos. 6,410,254, 6,743,599, 7,202,051, and 7,378,254) assay system. Myofibril preparations consisted of rabbit skeletal muscle (approximately 90% fast fibers) that had been mechanically homogenized and washed with a detergent (Triton X-100) to remove cellular membranes. This preparation retained all of the sarcomeric components in a native conformation and the enzymatic activity was still regulated by calcium. Compounds were tested using a myofibril suspension and a level of calcium sufficient to increase enzymatic activity of the myofibrils to 25% of their maximal rate (termed pCa25). Enzymatic activity was tracked via a pyruvate kinase and lactate dehydrogenase-coupled enzyme system. This assay regenerates myosin-produced ADP into ATP by oxidizing NADH, producing an absorbance change at 340 nm. The buffering system was 12 mM PIPES, 2 mM MgCl2, 1 mM DTT at pH 6.8 (PM12 buffer). […] In Table 9, “Example Compound” refers to the compound labeled with the same number in Table 2.

Structure (SMILES)	AC1.4
CC[C@H](C)[C@H]1C(=O)Nc2cc(F)ccc2CN1C(=O)NC [Compound 77, (S)-3-((S)-sec-butyl)-8-fluoro-N-methyl-2-oxo-1,2,3,5-tetrahydro-4H-benzo[e][1,4]diazepine-4-carboxamide]	0.19 µM
CC[C@H](C)[C@H]1C(=O)Nc2c(F)cccc2CN1C(=O)NC [Compound 78, (S)-3-((S)-sec-butyl)-9-fluoro-N-methyl-2-oxo-1,2,3,5-tetrahydro-4H-benzo[e][1,4]diazepine-4-carboxamide]	0.50 µM
CC[C@H](C)[C@H]1C(=O)Nc2c(F)cccc2CN1C(=O)N1CC(O)C1 [Compound 79, (S)-3-((S)-sec-butyl)-9-fluoro-4-(3-hydroxyazetidine-1-carbonyl)-1,3,4,5-tetrahydro-2H-benzo[e][1,4]diazepin-2-one]	0.32 µM
CC[C@H](C)[C@H]1C(=O)Nc2cncc(F)c2CN1C(=O)c1cnn(C)c1 [Compound 80, (S)-3-((S)-sec-Butyl)-6-fluoro-4-(1-methyl-1H-pyrazole-4-carbonyl)-1,3,4,5-tetrahydro-2H-pyrido[3,4-e][1,4]diazepin-2-one]	0.47 µM
CC[C@H](C)[C@H]1C(=O)Nc2cncc(C)c2CN1C(N)=O [Compound 81, (S)-3-((S)-sec-butyl)-6-methyl-2-oxo-1,2,3,5-tetrahydro-4H-pyrido[3,4-e][1,4]diazepine-4-carboxamide]	3.80 µM
CC[C@H](C)[C@H]1C(=O)Nc2ccccc2CN1C(=O)c1cc2cnccc2[nH]1 [Compound 83, (S)-3-((S)-sec-butyl)-4-(1H-pyrrolo[3,2-c]pyridine-2-carbonyl)-1,3,4,5-tetrahydro-2H-benzo[e][1,4]diazepin-2-one]	0.03 µM
CC[C@H](C)[C@H]1C(=O)Nc2ccccc2CN1C(=O)c1ccn(C)n1 [Compound 84, (S)-3-((S)-sec-butyl)-4-(1-methyl-1H-pyrazole-3-carbonyl)-1,3,4,5-tetrahydro-2H-benzo[e][1,4]diazepin-2-one]	0.09 µM
CC[C@H](C)[C@H]1C(=O)Nc2ccccc2CN1C(=O)c1ccc(C(N)=O)[nH]1 [Compound 85, 5-((S)-3-((S)-sec-butyl)-2-oxo-2,3,4,5-tetrahydro-1H-benzo[e][1,4]diazepine-4-carbonyl)-1H-pyrrole-2-carboxamide]	0.01 µM
CC[C@H](C)[C@H]1C(=O)Nc2ccccc2CN1C(=O)[C@H](C)O [Compound 86, (S)-3-((S)-sec-butyl)-4-((S)-2-hydroxypropanoyl)-1,3,4,5-tetrahydro-2H-benzo[e][1,4]diazepin-2-one]	1.81 µM
CC[C@H](C)[C@H]1C(=O)Nc2ccccc2CN1/C(=N/C#N)NC [Compound 87, (S,E)-3-((S)-sec-butyl)-N′-cyano-N-methyl-2-oxo-1,2,3,5-tetrahydro-4H-benzo[e][1,4]diazepine-4-carboximidamide]	0.07 µM
CC(C)[C@H]1C(=O)Nc2ccccc2CN1c1nccc(=O)[nH]1 [Compound 88, (S)-3-isopropyl-4-(6-oxo-1,6-dihydropyrimidin-2-yl)-1,3,4,5-tetrahydro-2H-benzo[e][1,4]diazepin-2-one]	1.22 µM
CC[C@H](C)[C@H]1C(=O)Nc2ccccc2CN1S(=O)(=O)c1ccc(F)cc1 [Compound 89, (S)-3-((S)-sec-butyl)-4-((4-fluorophenyl)sulfonyl)-1,3,4,5-tetrahydro-2H-benzo[e][1,4]diazepin-2-one]	0.18 µM
CC(=O)N1Cc2ccccc2NC(=O)[C@@H]1C1CCCCCC1 [Compound 91, (S)-4-acetyl-3-cycloheptyl-1,3,4,5-tetrahydro-2H-benzo[e][1,4]diazepin-2-one]	0.08 µM
O=C1Nc2ccccc2CN(C(=O)CO)[C@H]1C1CCCCC1 [Compound 92, (S)-3-cyclohexyl-4-(2-hydroxyacetyl)-1,3,4,5-tetrahydro-2H-benzo[e][1,4]diazepin-2-one]	0.40 µM
CC[C@H](C)[C@H]1C(=O)Nc2ccccc2CN1C(=O)Nc1ccc(=O)n(C)c1 [Compound 93, (S)-3-((S)-sec-butyl)-N-(1-methyl-6-oxo-1,6-dihydropyridin-3-yl)-2-oxo-1,2,3,5-tetrahydro-4H-benzo[e][1,4]diazepine-4-carboxamide]	0.13 µM
CC[C@H](C)[C@H]1C(=O)Nc2ccccc2CN1C(=O)Nc1cccn(C)c1=O [Compound 94, (S)-3-((S)-sec-butyl)-N-(1-methyl-2-oxo-1,2-dihydropyridin-3-yl)-2-oxo-1,2,3,5-tetrahydro-4H-benzo[e][1,4]diazepine-4-carboxamide]	0.15 µM
CC[C@H](C)[C@H]1C(=O)Nc2ccccc2CN1C(=O)c1c[nH]c(=O)[nH]1 [Compound 95, (S)-3-((S)-sec-butyl)-4-(2-oxo-2,3-dihydro-1H-imidazole-4-carbonyl)-1,3,4,5-tetrahydro-2H-benzo[e][1,4]diazepin-2-one]	0.04 µM
CC[C@H](C)[C@H]1C(=O)Nc2ccccc2CN1C(=O)Nc1cccnc1 [Compound 99, (S)-3-((S)-sec-butyl)-2-oxo-N-(pyridin-3-yl)-1,2,3,5-tetrahydro-4H-benzo[e][1,4]diazepine-4-carboxamide]	0.05 µM
CC[C@H](C)[C@H]1C(=O)Nc2ccccc2CN1C(=O)Nc1cn[nH]c1 [Compound 101, (S)-3-((S)-sec-butyl)-2-oxo-N-(1H-pyrzol-4-yl)-1,2,3,5-tetrahydro-4H-benzo[e][1,4]diazepine-4-carboxamide]	0.05 µM
CC[C@H](C)[C@H]1C(=O)Nc2ccccc2CN1C(=O)N1CC(CO)C1 [Compound 102, (S)-3-((S)-sec-butyl)-4-(3-(hydroxymethyl)azetidine-1-carbonyl)-1,3,4,5-tetrahydro-2H-benzo[e][1,4]diazepin-2-one]	0.37 µM
CC[C@H](C)[C@H]1C(=O)Nc2ccccc2CN1C(=O)N1CC[C@H]1C(N)=O [Compound 103, (S)-1-((S)-3-((S)-sec-butyl)-2-oxo-2,3,4,5-tetrahydro-1H-benzo[e][1,4]diazepine-4-carbonyl)azetidine-2-carboxamide]	1.22 µM
CC[C@H](C)[C@H]1C(=O)Nc2ccccc2CN1C(=O)c1c[nH]cn1 [Compound 104, (S)-3-((S)-sec-butyl)-4-(1H-imidazole-4-carbonyl)-1,3,4,5-tetrahydro-2H-benzo[e][1,4]diazepin-2-one]	0.08 µM
CC[C@H](C)[C@H]1C(=O)Nc2ccccc2CN1C(=O)c1ccn[nH]1 [Compound 105, (S)-3-((S)-sec-butyl)-4-(1H-pyrazole-5-carbonyl)-1,3,4,5-tetrahydro-2H-benzo[e][1,4]diazepin-2-one]	0.10 µM
CC[C@H](C)[C@H]1C(=O)Nc2ccccc2CN1C(=O)[C@@H]1CCCO1 [Compound 106, (S)-3-((S)-sec-butyl)-4-((S)-tetrahydrofuran-2-carbonyl)-1,3,4,5-tetrahydro-2H-benzo[e][1,4]diazepin-2-one]	0.89 µM
CC[C@H](C)[C@H]1C(=O)Nc2ccccc2CN1C(=O)[C@H]1CCCO1 [Compound 107, (S)-3-((S)-sec-butyl)-4-((R)-tetrahydrofuran-2-carbonyl)-1,3,4,5-tetrahydro-2H-benzo[e][1,4]diazepin-2-one]	0.29 µM
CC[C@H](C)[C@H]1C(=O)Nc2ccccc2CN1C(=O)c1cnccn1 [Compound 108, (S)-3-((S)-sec-butyl)-4-(pyrazine-2-carbonyl)-1,3,4,5-tetrahydro-2H-benzo[e][1,4]diazepin-2-one]	0.19 µM
CC[C@H](C)[C@H]1C(=O)Nc2ccccc2CN1C(=O)c1cnc(C(N)=O)cn1 [Compound 109, 5-((S)-3-((S)-sec-butyl)-2-oxo-2,3,4,5-tetrahydro-1H-benzo[e][1,4]diazepine-4-carbonyl)pyrazine-2-carboxamide]	0.17 µM
CC[C@H](C)[C@H]1C(=O)Nc2ccccc2CN1C(=O)CS(N)(=O)=O [Compound 110, 2-((S)-3-((S)-sec-butyl)-2-oxo-1,2,3,5-tetrahydro-4H-benzo[e][1,4]diazepin-4-yl)-2-oxoethane-1-sulfonamide]	1.36 µM
CC[C@H](C)[C@H]1C(=O)Nc2ccccc2CN1C(=O)CS(C)(=O)=O [Compound 111, (S)-3-((S)-sec-butyl)-4-(2-(methylsulfonyl)acetyl)-1,3,4,5-tetrahydro-2H-benzo[e][1,4]diazepin-2-one]	4.90 µM
CC[C@H](C)[C@H]1C(=O)Nc2ccccc2CN1/C(N)=N/S(C)(=O)=O [Compound 112, (S,E)-3-((S)-sec-butyl)-N′-(methylsulfonyl)-2-oxo-1,2,3,5-tetrahydro-4H-benzo[e][1,4]diazepine-4-carboximidamide]	0.81 µM
